Experimental data as given in patent US20080275029A1, “Compounds for Treating Protein-Kinase Mediated Disorders” (ASTEX THERAPEUTICS LIMITED, priority 2004, published 2008).
Where a name gives a salt, the structure may show the parent alone. Read-outs that look alike come from different tables or passages of the source.

Target: T1, protein kinase B (PKB), fusion protein PKB-PIF (Homo sapiens, UniProt P31751)
T1 construct: made in house
Assay: Measurement of PKB kinase inhibitory activity (IC50)
Assay type: biochemical
Description: The inhibition of protein kinase B (PKB) activity by compounds can be determined essentially as described by Andjelkovic et al. (Mol. Cell. Biol. 19, 5061-5072 (1999)) but using a fusion protein described as PKB-PIF and described in full by Yang et al (Nature Structural Biology 9, 940-944 (2002)). […] A final concentration of 0.6 nM enzyme is used in a buffer that includes 20 mM MOPS pH 7.2, 30 μM ATP/γ^33P-ATP and 25 μM substrate. Compounds are added in DMSO solution to a final DMSO concentration of 2.5%. The reaction is allowed to proceed for 20 minutes before addition of excess orthophosphoric acid to quench activity. The reaction mixture is transferred to a phosphocellulose filter plate where the peptide binds and the unused ATP is washed away. After washing, scintillant is added and the incorporated activity measured by scintillation counting.
The % inhibition of the PKB activity is calculated and plotted in order to determine the concentration of test compound required to inhibit 50% of the PKB activity (IC50).

[1] = PKB-PIF activated with PDK1, 30 μM ATP, AKTide-2T substrate, 20 minutes, read-out: IC50 (concentration required to inhibit 50% of the PKB activity)

T1 sequence (P31751 with tags, fused parts or gaps limits assumed): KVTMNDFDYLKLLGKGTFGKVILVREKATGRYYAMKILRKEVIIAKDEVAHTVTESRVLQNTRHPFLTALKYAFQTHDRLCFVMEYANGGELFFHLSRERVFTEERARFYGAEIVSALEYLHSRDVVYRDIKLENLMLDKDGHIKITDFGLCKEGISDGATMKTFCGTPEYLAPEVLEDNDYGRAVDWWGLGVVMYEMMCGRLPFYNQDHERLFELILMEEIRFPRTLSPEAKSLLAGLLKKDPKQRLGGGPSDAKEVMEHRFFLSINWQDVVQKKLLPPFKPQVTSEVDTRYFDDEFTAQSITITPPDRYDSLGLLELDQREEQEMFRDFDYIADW

In the case of `NCCC(C(=O)Nc1ccc2c(=O)[nH]cnc2c1)c1ccc(Cl)c(Cl)c1` (stereo not shown) [Example 1, 4-Amino-2-(3,4-dichloro-phenyl)-N-(4-oxo-3,4-dihydro-quinazolin-7-yl)-butyramide], the IC50 [1] is reported as < 10 µM.

For `CNCCC(C(=O)Nc1ccc2c(=O)[nH]cnc2c1)c1ccc(Cl)cc1` (stereo not shown) [Example 2, 2-(4-Chloro-phenyl)-4-methylamino-N-(4-oxo-3,4-dihydro-quinazolin-7-yl)-butyramide], the IC50 [1] was < 10 µM.

In the case of `NCCC(NC(=O)c1ccc2c(=O)[nH]cnc2c1)c1ccc(Cl)cc1` (stereo not shown) [Example 3, 4-Oxo-3,4-dihydro-quinazoline-7-carboxylic acid[3-amino-1-(4-chloro-phenyl-propyl]-amide hydrochloride], the IC50 [1] is reported as < 10 µM.

With `O=C(Nc1ccc2c(=O)[nH]cnc2c1)C1(c2ccccc2)CCNCC1` [Example 4, 4-Phenyl-piperidine-4-carboxylic acid (4-oxo-3,4-dihydro-quinazolin-7-yl)-amide] the IC50 [1] was < 10 µM.

`O=C(NCc1ccc(Cl)cc1)Nc1ccc2c(=O)[nH]cnc2c1` [Example 5, 1-(4-Chloro-benzyl)-3-(4-oxo-3,4-dihydro-quinazolin-7-yl)-urea] was tested, and the IC50 [1] was < 10 µM.

`O=C(NCc1ccc(F)cc1)Nc1ccc2c(=O)[nH]cnc2c1` [Example 6, 1-(4-Fluoro-benzyl)-3-(4-oxo-3,4-dihydro-quinazolin-7-yl)-urea] was tested, and the IC50 [1] was < 10 µM.

With `O=c1[nH]cnc2cc(OCC3(c4ccccc4)CCNCC3)ccc12` [Example 7, 7-(4-Phenyl-piperidin-4-ylmethoxy)-3H-quinazolin-4-one] the IC50 [1] was < 10 µM.

For `O=C(NCc1ccccc1)Nc1ccc2c(=O)[nH]cnc2c1` [Example 8, 1-Benzyl-3-(4-oxo-3,4-dihydro-quinazolin-7-yl)-urea], the IC50 [1] was < 10 µM.

`NCCCOc1ccc2c(=O)[nH]cnc2c1` [Example 9, 7-(3-Amino-propoxy)-3H-quinazolin-4-one] was tested, and the IC50 was < 10 µM.

`NCCCc1ccc2c(=O)[nH]cnc2c1` [Example 14, 7-(3-Amino-propyl)-3H-quinazolin-4-one] was tested, and the IC50 [1] was < 10 µM.

`N[C@H]1CC[C@H](Nc2ccc3c(=O)[nH]cnc3c2)CC1` [Example 15, 7-(trans-4-Amino-cyclohexylamino)-3H-quinazolin-4-one] was tested, and the IC50 [1] was < 10 µM.

With `O=c1[nH]cnc2cc(NC3CCNC3)ccc12` (stereo not shown) [Example 16, 7-(Pyrrolidin-3-ylamino)-3H-quinazolin-4-one] the IC50 was < 10 µM.

For `NC1CCN(c2ccc3c(=O)[nH]cnc3c2)CC1` [Example 17, 7-(4-Amino-piperidin-1-yl)-3H-quinazolin-4-one], the IC50 [1] was < 10 µM.

With `O=c1[nH]cnc2cc(N3CCNCC3)ccc12` [Example 18, 7-piperazin-1-yl-3H-quinazolin-4-one] the IC50 was < 10 µM.

For `O=c1[nH]cnc2cc(N3CCCNCC3)ccc12` [Example 19, 7-[1,4]Diazepan-1-yl-3H-quinazolin-4-one], the IC50 [1] was < 10 µM.

For `O=c1[nH]cnc2cc(NC3CCCNC3)ccc12` (stereo not shown) [Example 20, 7-(Piperidin-3-ylamino)-3H-quinazolin-4-one], the IC50 [1] was < 10 µM.

`N[C@H]1CC[C@H](Nc2ccc3c(=O)[nH]c(=O)[nH]c3c2)CC1` [Example 21, 7-(4-Amino-cyclohexylamino)-1H-quinazoline-2,4-dione] was tested, and the IC50 [1] was < 10 µM.

With `CN1CCCN(c2ccc3c(=O)[nH]cnc3c2)CC1` [Example 22, 7-(4-Methyl-[1,4]diazepan-1-yl)-3H-quinazolin-4-one] the IC50 [1] was < 10 µM.

`CN1CCN(C2CCN(c3ccc4c(=O)[nH]cnc4c3)CC2)CC1` [Example 23, 7-[4-(4-Methyl-piperazin-1-yl)-piperidin-1-yl]-3H-quinazolin-4-one] was tested, and the IC50 [1] was < 50 µM.

For `O=c1[nH]cnc2cc(N3CCNC(c4ccccc4)C3)ccc12` (stereo not shown) [Example 25], the IC50 [1] was < 50 µM.

For `CN1CCN(c2ccc3c(=O)[nH]cnc3c2)CC1` [Example 26, 7-(4-Methyl-piperazin-1-yl)-3H-quinazolin-4-one], the IC50 [1] was < 50 µM.

With `NCC1(c2ccc(Cl)cc2)CCN(c2ccc3c(=O)[nH]cnc3c2)CC1` [Example 27, 7-[4-Aminomethyl-4-(4-chloro-phenyl)-piperidin-1-yl]-3H-quinazolin-4-one] the IC50 [1] was < 10 µM.

With `NCC[C@H](C(=O)Nc1ccc2c(=O)[nH]cnc2c1)c1ccc(Cl)c(Cl)c1` [Example 28] the IC50 [1] was < 10 µM.

`NCC[C@@H](C(=O)Nc1ccc2c(=O)[nH]cnc2c1)c1ccc(Cl)c(Cl)c1` [Example 29, (R)-4-Amino-2-(3,4-dichloro-phenyl)-N-(4-oxo-3,4-dihydro-quinazolin-7-yl)butyramide] was tested, and the IC50 [1] was < 10 µM.

In the case of `O=C(Nc1ccc2c(=O)[nH]cnc2c1)C1(c2ccc(Cl)cc2)CCNCC1` [Example 30, 4-(4-Chloro-phenyl)-piperidine-4-carboxylic acid (4-oxo-3,4-dihydro-quinazolin-7-yl)-amide], the IC50 [1] is reported as < 10 µM.

In the case of `N[C@H]1CC[C@H](Oc2ccc3c(=O)[nH]cnc3c2)CC1` [Example 31, 7-(4-Amino-cyclohexyloxy)-3H-quinazolin-4-one], the IC50 [1] is reported as < 10 µM.

For `O=c1[nH]cnc2cc(NCC3(c4ccc(Cl)cc4)CCNCC3)ccc12` [Example 32, 7-{[4-(4-Chloro-phenyl)-piperidin-4-ylmethyl]-amino}-3H-quinazolin-4-one], the IC50 [1] was < 10 µM.

`O=c1[nH]cnc2cc(OCC3(c4ccc(Cl)cc4)CCNCC3)ccc12` [Example 33, 7-[4-(4-Chloro-phenyl)-piperidin-4-ylmethoxy]-3H-quinazolin-4-one] was tested, and the IC50 [1] was < 10 µM.

`O=c1[nH]cnc2cc(N3CCC(CO)(c4ccc(Cl)cc4)CC3)ccc12` [Example 34, 7-[4-(4-Chloro-phenyl)-4-hydroxymethyl-piperidin-1-yl]-3H-quinazolin-4-one] was tested, and the IC50 [1] was < 10 µM.

In the case of `Cc1nc2cc(N3CCC(CN)(c4ccc(Cl)cc4)CC3)ccc2c(=O)[nH]1` [Example 35, 7-[4-Aminomethyl-4-(4-chloro-phenyl)-piperidin-1-yl]-2-methyl-3H-quinazolin-4-one], the IC50 [1] is reported as < 10 µM.

For `NC(c1ccc(Cl)cc1)C1CCN(c2ccc3c(=O)[nH]cnc3c2)CC1` (stereo not shown) [Example 36, 7-{4-[Amino-(4-chloro-phenyl)-methyl]-piperidin-1-yl}-3H-quinazolin-4-one], the IC50 [1] was < 10 µM.

With `Cn1c(=O)[nH]c(=O)c2ccc(OCC3(c4ccc(Cl)cc4)CCNCC3)cc21` [Example 37, 7-[4-(4-Chloro-phenyl)-piperidin-4-ylmethoxy]-1-methyl-1H-quinazoline-2,4-dione] the IC50 [1] was < 10 µM.

In the case of `NC1(Cc2ccc(Cl)cc2)CCN(c2ccc3c(=O)[nH]cnc3c2)CC1` [Example 38, 7-[4-Amino-4-(4-chloro-benzyl)-piperidin-1-yl]-3H-quinazolin-4-one], the IC50 [1] is reported as < 10 µM.

For `O=c1[nH]cnc2cc(/C=C/C3(c4ccc(Cl)cc4)CCNCC3)ccc12` [Example 39, 7-{2-[4-(4-Chloro-phenyl)-piperidin-4-yl]-vinyl}-3H-quinazolin-4-one dihydrochloride], the IC50 [1] was < 10 µM.

For `NC1(c2ccc(Cl)cc2)CCN(c2ccc3c(=O)[nH]cnc3c2)CC1` [Example 40, 7-[4-Amino-4-(4-chloro-phenyl)-piperidin-1-yl]-3H-quinazolin-4-one], the IC50 [1] was < 10 µM.

`NCC1(Cc2ccc(Cl)cc2)CCN(c2ccc3c(=O)[nH]cnc3c2)CC1` [Example 41, 7-[4-Aminomethyl-4-(4-chloro-benzyl)-piperidin-1-yl]-3H-quinazolin-4-one] was tested, and the IC50 [1] was < 10 µM.

For `Cn1c(=O)[nH]c(=O)c2ccc(N3CCC(CN)(Cc4ccc(Cl)cc4)CC3)cc21` [Example 42, 7-[4-Aminomethyl-4-(4-chloro-benzyl)-piperidin-1-yl]-1-methyl-1H-quinazoline-2,4-dione], the IC50 [1] was < 10 µM.
